Values quoted from earlier work, collected in patent US8158153B2, “Nanoparticulate bisphosphonate compositions” (Alkermes Pharma Ireland Limited, priority 2005, dated 2012).
“Also recorded” adds a separate entry of the source. Structures can show the parent of a compound that is named as a salt.

Legend:
[1] = patients; clinical use
[2] = 1% solution in distilled water

Row | SMILES | side effects / adverse effects [1] | solubility in organic solvents (organic solvents) | solubility in water | pH of a 1% solution [2]
1 | CCCCCN(C)CCC(O)(P(=O)([O-])O)P(=O)(O)O.O.[Na+] [Ibandronate sodium, 3-(N-methyl-N-pentyl) amino-1-hydroxypropane-1,1-diphosphonic acid, monosodium salt, monohydrate] | gastrointestinal irritation | practically insoluble | freely soluble | –
2 | NCCC(O)(P(=O)([O-])O)P(=O)([O-])O.[Na+].[Na+] [Pamidronate disodium, phosphonic acid (3-amino-1-hydroxypropylidene) bis-, disodium salt, pentahydrate] | esophageal ulcers; also recorded: pain at the site of catheter insertion; also recorded: gastrointestinal pain | – | – | approximately 8.3
3 | O=P(O)(O)C(O)(Cc1cccnc1)P(=O)(O)O [Risedronate sodium, [1-hydroxy-2-(3-pyridinyl)ethylidene]bis[phosphonic acid] monosodium salt] | gastrointestinal irritation | – | – | –
4 | CC(O)(P(=O)([O-])[O-])P(=O)(O)O.[Na+].[Na+] [etidronate disodium, disodium salt of (1-hydroxyethylidene) diphosphonic acid] | – | – | highly soluble | –
